Data on one compound can be found in US8629173B2, “Solid forms comprising (+)-2-[1-(3-ethoxy-4-methoxyphenyl)-2-methylsulfonylethyl]-4-acetylaminoisoindoline-1,3-dione, compositions thereof, and uses thereof” (Celgene Corporation, priority 2002, dated 2014).

The structures appear in SMILES notation.

In test [1] the target is PDE5 from human platelets (Homo sapiens, UniProt O76074). Kind of test: PDE5 enzyme assay. It counts as biochemical.
For test [2], the system named is CD11b expression on neutrophils. Kind of test: fMLF-induced CD11b expression on neutrophils. The note with it: Neutrophil; human neutrophils, 30 nM fMLF. It counts as cell-based. As for the experimental part: CD18/CD11b (Mac-1) expression on neutrophils was measured as previously described (Derian et al., 1995, J. Immunol., 154:308-3 17) with the following modifications. Neutrophils were isolated as described above, then resuspended in complete medium at 1×10^6 cells/ml, pretreated with compounds at 10, 1, 0.1, 0.01, and 0 μM in duplicate at a final DMSO concentration of 0.1% for 10 minutes at 37° C. 5% CO2. Cells were then stimulated with 30 nM fMLF for 30 minutes and then chilled to 4° C. Cells were treated with rabbit IgG (Jackson ImmunoResearch Labs, West Grove, Pa., USA) (10 μg/1×10^6 cells) to block Fc receptors, stained with CD18-FITC and CD11b-PE (Becton Dickinson), and analyzed by flow cytometry on a FACSCalibur. CD18/CD11b expression (mean fluorescence) in the absence of stimulation was subtracted from all samples to obtain inhibition curves and calculate IC50 values.

Test [3] has as its system neutrophil adhesion to HUVEC. Kind of test: fMLF-induced adhesion to HUVEC. It counts as cell-based. The note with it: human neutrophils, 500 nM fMLF. As for the experimental part:
Human umbilical vein endothelial cells (HUVEC) were used as a substrate for neutrophil adhesion as previously described (Derian et al., 1995, J. Immunol., 154:308-317) with the following modifications. HUVEC cells were obtained from Anthrogenesis (Cedar Knolls, N.J., USA), and neutrophils were not treated with cytochalasin B. Cells were treated with compounds at 10, 1, 0.1, 0.01, 0.001, and 0 μM in a final DMSO concentration of 0.1% in duplicate for 10 minutes, stimulated with 500 nM fMLF for 30 minutes, and washed twice with PBS before measuring fluorescence on an FLX800 plate reader (Bio-Tek Instruments, Winooski, Vt., USA).

What is called IC50 is the concentration needed to halve the response being measured. A lower IC50 goes with inhibition by little substance. With `CCOc1cc(C(CS(C)(=O)=O)N2C(=O)c3cccc(NC(C)=O)c3C2=O)ccc1OC` (single isomer, unassigned; (+)) [Compound A, (+)-2-[1-(3-ethoxy-4-methoxyphenyl)-2-methylsulfonylethyl]-4-acetylaminoisoindoline-1,3-dione], the “PDE Specificity Ratio PDE4/PDE5” value in test [1] (from Table 1 data) is reported as greater than 30000 fold. Moreover, in test [1] (read-out: PDE5 (% inhib at 10 μM)), the inhibition at 10 µM was determined as 3%. In addition, the IC50 in test [2] amounted to 74 nM; in test [3], 150 nM.
